Legend:
[1] = test system: lung adenocarcinoma cell line HCC4006; experiment: HCC4006 cell growth inhibition test (Test Example 2); type: cell-based; details: Homo sapiens, 120 h; 1 μM test compound; HCC4006 cells, culture for 5 days, CellTiter-Glo; read-out: Rate of inhibition (%) at 1 μM
Procedure, shortened: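 HCC4006 cells in RPMI-1640 with 10% FBS were seeded at 250 cells/well and dosed with compound the next day. After 5 days, viability was read by CellTiter-Glo luminescence. Percent inhibition was calculated against no-compound control and cell-free blank.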

[2] = test system: human leukemia cell line PL-21 cancer-bearing mice; experiment: Antitumor test using PL-21 cell (Test Example 3); type: in vivo, mouse
Description: The compound of the present invention was evaluated for its antitumor effect on human leukemia cell line PL-21 cancer-bearing mice by the following method.
The human leukemia cell line PL-21 (JCRB) was transplanted to each 6-week-old Icr-scid female mouse (CLEA Japan Inc.) by the subcutaneous injection of 3.0×10^6 cells. The tumor size of successfully engrafted tumor was measured 13 days after the transplantation. The tumor volume was calculated according to the following expression: Tumor volume=Major axis×Minor axis×Minor axis×(½)
Individuals in which the volume of the engrafted tumor reached 100 to 150 mm^3 were selected and used in the experiment as groups each involving 5 or 6 individuals. A 0.5% methylcellulose suspension of each test compound was orally administered to each mouse using the dose (indicated by single dose), the number of doses and the dosing period shown in Table 5. The tumor sizes at the day before the start of the administration and one day after the completion of the administration were measured and the tumor volume was calculated.
The rate of tumor growth (T/C (%)) in the test compound administration group compared with a control administration group was calculated according to the following expression: T/C (%)=(Tumor volume after the completion of the administration of the test compound administration group−Tumor volume before the start of the administration of the test compound administration group)/(Tumor volume after the completion of the administration of the control administration group−Tumor volume before the start of the administration of the control administration group)×100

[3] = molecular target: T1, SPT (SPT2-expressing membrane fraction: human SPT1, human SPT2 and human ssSPTa) (Homo sapiens, UniProt O15269+O15270); experiment: SPT enzyme inhibition test (Test Example 1); type: biochemical; details: read-out: Rate of inhibition (%) at 1 μM
T1 construct: Full-length human SPT1, human SPT2 and human ssSPTa used; made in house; host or cells: FreeStyle 293 cells (pcDNA3.1 vectors, cotransfection); crude membrane fraction used
T1 sequence (O15269 1-473): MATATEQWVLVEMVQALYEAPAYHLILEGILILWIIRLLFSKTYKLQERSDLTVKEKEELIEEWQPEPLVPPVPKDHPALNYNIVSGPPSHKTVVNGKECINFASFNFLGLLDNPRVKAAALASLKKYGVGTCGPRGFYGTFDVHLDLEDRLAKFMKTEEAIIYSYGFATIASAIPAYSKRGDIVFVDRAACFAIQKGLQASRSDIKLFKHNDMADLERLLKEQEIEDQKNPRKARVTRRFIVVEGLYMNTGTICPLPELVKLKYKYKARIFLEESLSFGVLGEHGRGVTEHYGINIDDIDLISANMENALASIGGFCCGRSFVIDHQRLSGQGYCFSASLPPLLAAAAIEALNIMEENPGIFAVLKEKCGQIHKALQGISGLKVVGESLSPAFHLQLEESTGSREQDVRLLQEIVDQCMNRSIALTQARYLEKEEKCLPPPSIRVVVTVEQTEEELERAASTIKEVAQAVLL
T1 sequence (O15270 1-562): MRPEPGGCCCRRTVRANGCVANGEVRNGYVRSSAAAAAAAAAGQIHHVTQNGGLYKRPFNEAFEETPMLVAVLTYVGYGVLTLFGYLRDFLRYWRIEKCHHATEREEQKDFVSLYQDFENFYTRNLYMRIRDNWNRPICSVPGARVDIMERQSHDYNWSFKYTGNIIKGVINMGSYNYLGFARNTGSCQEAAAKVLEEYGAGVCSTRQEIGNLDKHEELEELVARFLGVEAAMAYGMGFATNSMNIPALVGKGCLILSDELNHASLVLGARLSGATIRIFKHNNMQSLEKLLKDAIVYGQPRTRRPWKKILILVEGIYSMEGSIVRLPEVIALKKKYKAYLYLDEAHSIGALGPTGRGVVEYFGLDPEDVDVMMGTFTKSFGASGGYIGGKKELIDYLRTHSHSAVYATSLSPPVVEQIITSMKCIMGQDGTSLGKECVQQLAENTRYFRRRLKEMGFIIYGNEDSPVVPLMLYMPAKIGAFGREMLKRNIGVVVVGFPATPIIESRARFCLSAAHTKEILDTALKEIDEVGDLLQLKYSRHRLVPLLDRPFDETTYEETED
T1 sequence (Q969W0 1-71 partner): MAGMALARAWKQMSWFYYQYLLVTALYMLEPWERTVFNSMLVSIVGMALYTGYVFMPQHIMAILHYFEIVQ
Procedure, shortened: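 Membrane fraction (100 μg/mL stock) of cells expressing human SPT1, SPT2 and ssSPTa was preincubated 60 min at RT with compound in 100 mM Hepes pH 8.0 containing EDTA, DTT and 0.01% BSA. Reaction ran 15 min at RT with 2 mM L-serine and 20 μM palmitoyl CoA (solution concentrations), then formic acid quench. Product measured by RapidFire mass spectrometry against a C17-sphinganine internal standard, giving % inhibition.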

[4] = 10 mg/kg orally, administered once every two days, 14 days
[5] = 30 mg/kg orally, administered once every two days, 14 days

inhibition at 1 µM [3] [%] | SMILES | inhibition at 1 µM [1] [%] | T/C (%) [2, 4] [%] | T/C (%) [2, 5] [%] | T/C (%) ([2]; 10 mg/kg orally, administered every day for 3 days, 4-day drug holiday, 2 cycles)
– | COc1cc(C(=O)N2CC[C@H](NC(=O)c3ccccc3OC(F)(F)F)c3c2cnn3C(C)C)cnc1OC [Example 162A, N-((7S)-4-((5,6-Dimethoxypyridin-3-yl)carbonyl)-1-isopropyl-4,5,6,7-tetrahydro-1H-pyrazolo[4,3-b]pyridin-7-yl)-2-(trifluoromethoxy)benzamide] | 56 | 52 | 38 | –
– | Cn1nc(C(F)(F)F)cc1C(=O)N[C@@H]1CCN(C(=O)c2cc(Cl)c3nccnc3c2)C[C@@H]1c1ccccc1 [Example 81B, N-((3S,4R)-1-((8-Chloroquinoxalin-6-yl)carbonyl)-3-phenylpiperidin-4-yl)-1-methyl-3-(trifluoromethyl)-1H-pyrazole-5-carboxamide] | 54 | 63 | 32 | 16
100 | Cc1cc(C(=O)N2CC[C@@H](NC(=O)c3ncccc3C(F)(F)F)[C@@H](c3ccccc3)C2)cc2nccnc12 [Example 74B, N-((3S,4R)-1-((8-Methylquinoxalin-6-yl)carbonyl)-3-phenylpiperidin-4-yl)-3-(trifluoromethyl)pyridine-2-carboxamide] | 45 | – | – | –
96 | O=C(N[C@@H]1CCN(C(=O)c2ccc3nccnc3c2)C[C@@H]1c1ccccc1)c1ccccc1OC(F)(F)F [Example 57B, N-((3S,4R)-3-phenyl-1-(quinoxalin-6-ylcarbonyl)piperidin-4-yl)-2-(trifluoromethoxy) benzamide] | 54 | – | – | –
99 | COc1ncc(C(=O)N2CC[C@H](NC(=O)c3ccc(Cl)cc3C(F)(F)F)c3c2cnn3CC(F)F)cc1Cl [Example 170A, 4-Chloro-N-((7S)-4-((5-chloro-6-methoxypyridin-3-yl)carbonyl)-1-(2,2-difluoroethyl)-4,5,6,7-tetrahydro-1H-pyrazolo[4,3-b]pyridin-7-yl)-2-(trifluoromethyl)benzamide] | 50 | – | – | –
101 | Cn1cnc2ccc(C(=O)N3CC[C@@H](NC(=O)c4ccccc4OC(F)(F)F)[C@@H](c4ccccc4)C3)cc21 [Example 104B, N-((3S,4R)-1-((1-methyl-1H-benzimidazol-6-yl)carbonyl)-3-phenylpiperidin-4-yl)-2-(trifluoromethoxy)benzamide] | 53 | – | – | –
